From US7932389B2, “Octahydropyrrolo[2,3C]pyridine derivatives and pharmaceutical use thereof” (Merck Serono S.A., priority 2004, dated 2011)

Experiments:
metalloelastase (MMP-12) = metalloelastase (MMP-12) (Homo sapiens, UniProt P39900); assay: MMP-12 enzyme inhibition assay, coumarin-labelled peptide substrate McaPLGLDpaAR; type: biochemical
Method: (§1) Compounds of the invention were tested to assess their activities as inhibitors of MMP-1, MMP-2, MMP-9, MMP-14 and MMP-12.
(§2) Stock solutions were made up as follows: Assay Butter: 100 mM Tris-HCl pH 7.6 containing 100 mM NaCl, 10 mM CaCl2, and 0.05% Brij 35.
(§3) Substrate: 0.4 mM McaPLGLDpaAR (from Bachem) (0.437 mg/ml) stock solution in 100% DMSO (stored at −20° C.). Dilute to 8 μM in assay butter.
(§4) Test Compounds were prepared initially as 10 mM compound solution in 100% DMSO, diluted to 1 mM in 100% DMSO, then serially diluted 3-fold in 100% DMSO across columns 1-10 of a 96-well microtitre plate Assay concentration range, 100 μM (column 1) to 5.1 nM (column 10).
(§5) The assay was performed in a total volume of 100 μL per well in 96-well microtitre plates. Activated enzyme (20 μL) was added to the wells followed by 20 μL of assay butter. Appropriate concentrations of test compounds dissolved in 10 μL of DMSO were then added followed by 50 μL of McaPLGLDpaAR (8 μM, prepared by dilution of DMSO stock in assay butter). For each as say ten concentrations of test compound were examined in duplicate. Control wells lack either enzyme or test compound. The reactions were incubated at 37° C. for 2 hours. The fluorescence at 405 nm was measured immediately with an SLT Fluostar fluorometer (SLT Labinstruments GmbH, Grödig, Austria) using 320 nm excitation, without stopping the reaction.
(§6) The effect of the test compound was determined from the dose response curve generated by the 10 duplicate concentrations of inhibitor. The IC50 (the concentration of compound required to give a 50% decrease in enzyme activity) was obtained by fitting data to the equation, Y=a+((b−a)/(1+(c/X)^d)). (Y=inhibition achieved for a particular dose; X=the dose in nM; a=minimum y or zero % inhibition; b=maximum y or 100% inhibition; c=is the IC50; d=is the slope). The result was rounded to one significant figure.
Compounds of the invention were tested for inhibitory activity against metalloelastase (MMP-12) in an assay using a coumarin-labelled peptide substrate, (7-methoxycoumarin-4-yl)acetyl-Pro-Leu-Gly-Leu-(3-[2,4dinitrophenyl]-L-2,3-diaminopropionyl)-Ala-Arg-NH2 (McaPLGLDpaAR) (Knight et al, 1992, above). The protocol for this assay was as described for the MMP-9 assay above.

[1] = test system: IL-2-induced peritoneal recruitment of lymphocytes; assay: IL-2-induced peritoneal recruitment of lymphocytes; type: in vivo, C3H/HEN mice; conditions: subcutaneous, 15 min prior to IL-2, cells collected 24 h after IL-2, mice
Method: Administration of IL-2 intraperitoneally causes migration of lymphocytes into the intraperitoneal cavity. This is a model for the cellular migration that occurs during inflammation.
C3H/HEN mice (Elevage Janvier, France) were intraperitoneally injected with IL-2 (Serono Pharmaceutical Research Institute, 20 μg/kg, in saline).
Compounds of the invention were suspended in 0.5% carboxymethylcellulose (CMC)/0.25% tween-20 and were administered by s.c. or p.o. route (10 ml/kg) 15 min prior to administration of IL-2.
Twenty-four hours after administration of IL-2, peritoneal white blood cells were collected by 3 successive lavages of the peritoneal cavity with 5 ml phosphate buffered saline (PBS)-1 mM EDTA (+4° C.). The suspension was centrifuged (1700 g×10 min at +4° C.). The resulting pellet was suspended in 1 ml PBS-1 mM EDTA.
Lymphocytes were identified and counted using a Beckman/Coulter counter.
The animals were divided into 6 groups (6 mice each group):
Group 1: (baseline) received 0.5% CMC/0.25% tween-20 (vehicle of compound of the invention) and saline (vehicle of IL-2);
Group 2: (control IL-2) received 0.5% CMC/0.25% tween-20 and injection of IL-2;
Group 3: Experimental group (Compound of the invention Dose 1) received a compound of the invention and injection of IL-2; […]
Inhibition of lymphocyte recruitment was calculated as follows: […]

[2] = molecular target: Recombinant human 92 kDa gelatinase (MMP-9) (Homo sapiens, UniProt P14780); assay: MMP-9 enzyme inhibition assay, coumarin-labeled peptide substrate McaPLGLDpaAR; type: biochemical
Method: as §1
Compounds of the invention were tested for inhibitory activity against 92 kDa gelatinase (MMP-9) in an assay using a coumarin-labeled peptide substrate, (7-methoxycoumarin-4-yl)acetyl-Pro-Leu-Gly-Leu-(3-[2,4-dinitrophenyl]-L-2,3diaminopropionyl)-Ala-Arg-NH2 (McaPLGLDpaAR) (Knight et al, FEBS Lett. 1992; 263-266).
as §2, §3
Enzyme: Recombinant human 92 kDa gelatinase (MMP-9; APMA (4-aminophenyl mercuric acetate)-activated if necessary) appropriately diluted in assay butter.
as §4, §5, §6

MMP-2 = molecular target: T1, MMP-2 (Homo sapiens, UniProt P08253); assay: MMP-2 enzyme inhibition assay, coumarin-labelled peptide substrate McaPLGLDpaAR; type: biochemical
T1 sequence (P08253 110-660): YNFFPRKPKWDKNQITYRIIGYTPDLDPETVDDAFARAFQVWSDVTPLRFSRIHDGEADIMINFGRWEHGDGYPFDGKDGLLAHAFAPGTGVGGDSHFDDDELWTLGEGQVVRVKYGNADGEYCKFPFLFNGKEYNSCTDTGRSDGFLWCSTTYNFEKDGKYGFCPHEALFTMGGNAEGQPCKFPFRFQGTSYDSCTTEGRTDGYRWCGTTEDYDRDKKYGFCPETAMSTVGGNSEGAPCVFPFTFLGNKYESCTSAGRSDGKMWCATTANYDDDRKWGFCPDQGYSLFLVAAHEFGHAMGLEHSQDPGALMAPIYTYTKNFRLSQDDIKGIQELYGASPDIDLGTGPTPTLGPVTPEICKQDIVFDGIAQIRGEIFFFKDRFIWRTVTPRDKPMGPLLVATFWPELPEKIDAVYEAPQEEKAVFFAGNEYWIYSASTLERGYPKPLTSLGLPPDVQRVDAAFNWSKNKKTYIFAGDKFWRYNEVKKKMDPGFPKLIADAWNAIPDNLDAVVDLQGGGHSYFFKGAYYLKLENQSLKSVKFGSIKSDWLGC
Method: as §1, §2, §3, §4, §5, §6
Compounds of the invention were tested for inhibitory activity against collagenase (MMP-2) in an assay using a coumarin-labelled peptide substrate, (7-methoxycoumarin-4-yl)acetyl-Pro-Leu-Gly-Leu-(3-[2,4-dinitrophenyl]-L-2,3diaminopropionyl)-Ala-Arg-NH2 (Mca PLGLDpaAR) (Knight et al, 1992, above). The protocol for this assay was as described for the MMP-9 assay above.

Chain of metalloelastase (MMP-12) (P39900 106-470): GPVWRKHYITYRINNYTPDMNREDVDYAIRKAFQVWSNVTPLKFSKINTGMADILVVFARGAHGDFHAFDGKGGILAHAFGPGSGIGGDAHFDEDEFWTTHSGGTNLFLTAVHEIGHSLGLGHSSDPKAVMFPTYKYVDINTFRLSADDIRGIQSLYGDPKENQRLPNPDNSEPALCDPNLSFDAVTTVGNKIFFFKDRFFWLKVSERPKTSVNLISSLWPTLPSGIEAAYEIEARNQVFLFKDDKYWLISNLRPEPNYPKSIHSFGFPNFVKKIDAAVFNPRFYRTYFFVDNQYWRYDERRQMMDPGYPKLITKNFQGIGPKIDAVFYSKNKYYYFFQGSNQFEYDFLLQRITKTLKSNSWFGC
Chain of Recombinant human 92 kDa gelatinase (MMP-9) (P14780 107-707 limits assumed): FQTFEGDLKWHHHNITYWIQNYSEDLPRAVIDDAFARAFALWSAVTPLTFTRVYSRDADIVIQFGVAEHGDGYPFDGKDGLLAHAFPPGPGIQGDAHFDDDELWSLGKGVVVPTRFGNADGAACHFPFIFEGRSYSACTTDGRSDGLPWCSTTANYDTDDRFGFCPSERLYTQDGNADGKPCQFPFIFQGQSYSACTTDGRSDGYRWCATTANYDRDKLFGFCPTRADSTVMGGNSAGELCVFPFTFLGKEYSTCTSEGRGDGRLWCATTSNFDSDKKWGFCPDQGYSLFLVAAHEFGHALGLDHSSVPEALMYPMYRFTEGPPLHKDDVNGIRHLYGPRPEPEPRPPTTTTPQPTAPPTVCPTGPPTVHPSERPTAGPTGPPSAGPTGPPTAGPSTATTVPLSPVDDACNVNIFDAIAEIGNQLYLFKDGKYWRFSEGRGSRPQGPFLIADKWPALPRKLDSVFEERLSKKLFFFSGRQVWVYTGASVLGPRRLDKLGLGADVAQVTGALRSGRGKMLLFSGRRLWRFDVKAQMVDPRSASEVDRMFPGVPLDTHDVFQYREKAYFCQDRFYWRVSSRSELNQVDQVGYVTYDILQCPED

Question: Which results are given for `COc1ccc(S(=O)(=O)N2[C@H](C(=O)NO)C[C@@H]3CCN(C(=O)CCc4ccccc4)C[C@@H]32)cc1` (relative stereo) [Example 8, rel-(2S,3aS,7aR)—N-hydroxy-1-[(4-methoxyphenyl)sulfonyl]-6-(3-phenylpropanoyl)octahydro-1H-pyrrolo[2,3-c]pyridine-2-carboxamide]?
Answer: IC50 (metalloelastase (MMP-12)): 50 nM; % inhibition of IL-2-induced peritoneal recruitment of lymphocytes ([1]; 3 mg/kg): 33%; IC50 [2]: 41 nM; IC50 (MMP-2): 50 nM

Question: What does the source list for `COc1ccc(S(=O)(=O)N2CC[C@H]3C[C@@H](C(=O)NO)N(S(=O)(=O)c4ccc(OC)cc4)[C@H]3C2)cc1` (relative stereo) [Example 10, rel-(2S,3aS,7aR)—N-hydroxy-1,6-bis[(4-methoxyphenyl)sulfonyl]octahydro-1H-pyrrolo[2,3-c]pyridine-2-carboxamide]?
Answer: IC50 (metalloelastase (MMP-12)): 950 nM; IC50 [2]: 1800 nM; IC50 (MMP-2): 1600 nM

Question: Which IC50 (metalloelastase (MMP-12)) does the source give for `COc1ccc(S(=O)(=O)N2[C@H](C(=O)NO)C[C@@H]3CCN(C(=O)c4ccc(-c5ccccc5)cc4)C[C@@H]32)cc1` (relative stereo) [Example 12, rel-(2S,3aS,7aR)-6-(biphenyl-4-ylcarbonyl)-N-hydroxy-1-[(4-methoxyphenyl)sulfonyl]octahydro-1H-pyrrolo[2,3-c]pyridine-2-carboxamide] here?
Answer: The IC50 was 1200 nM.

Question: What about the IC50 [2] of the same compound?
Answer: The IC50 was 1600 nM.

Question: And the IC50 (MMP-2)?
Answer: The IC50 was 1700 nM.

Question: With `COc1ccc(S(=O)(=O)N2[C@H](C(=O)NO)C[C@@H]3CCN(C(=O)C4CCCC4)C[C@@H]32)cc1` (relative stereo) [Example 7, rel-2S,3aS,7aR)-6-cyclopentylcarbonyl)-N-hydroxy-1-[(4-methoxyphenyl)sulfonyl]octahydro-1H-pyrrolo[2,3-c]pyridine-2-carboxamide] as the compound, how does the IC50 (metalloelastase (MMP-12)) read?
Answer: Its IC50 is 610 nM.

Question: And the IC50 [2]?
Answer: Its IC50 is 1100 nM.

Question: What about the IC50 (MMP-2) of the same compound?
Answer: The IC50 was 790 nM.

Question: With `COc1ccc(S(=O)(=O)N2[C@H](C(=O)NO)C[C@@H]3CCN(C(=O)Nc4ccccc4)C[C@@H]32)cc1` (relative stereo) [Example 16, rel-(2S,3aS,7aR)—N^2-hydroxy-1-[(4-methoxyphenyl)sulfonyl]-N^6-phenyloctahydro-6H-pyrrolo[2,3-c]pyridine-2,6-dicarboxamide] as the compound, how does the IC50 (metalloelastase (MMP-12)) read?
Answer: Its IC50 is 340 nM.

Question: And the IC50 [2]?
Answer: The IC50 was 430 nM.

Question: And the IC50 (MMP-2)?
Answer: Its IC50 is 320 nM.

Question: Which results are given for `COc1ccc(S(=O)(=O)N2[C@H](C(=O)NO)C[C@@H]3CCN(C(=O)c4ccccc4)C[C@@H]32)cc1` (relative stereo) [Example 1, rel-(2S,3aS,7aR)-6-benzoyl-N-hydroxy-1-[(4-methoxyphenyl)sulfonyl]octahydro-1H-pyrrolo[2,3-c]pyridine-2-carboxamide]?
Answer: IC50 (metalloelastase (MMP-12)): 1100 nM; IC50 [2]: 1700 nM; IC50 (MMP-2): 2100 nM

Question: With `COCCOC(=O)N1CC[C@H]2C[C@@H](C(=O)NO)N(S(=O)(=O)c3ccc(OC)cc3)[C@H]2C1` (relative stereo) [Example 5, 2-methoxyethyl rel-(2S,3aS,7aR)-2-[(hydroxyamino)carbonyl]-1-[(4-methoxyphenyl)sulfonyl]octahydro-6H-pyrrolo[2,3-c]pyridine-6-carboxylate] as the compound, how does the IC50 (metalloelastase (MMP-12)) read?
Answer: Its IC50 is 980 nM.

Question: What about the IC50 [2] of the same compound?
Answer: The IC50 was 1500 nM.

Question: And the IC50 (MMP-2)?
Answer: Its IC50 is 850 nM.

Question: `CS(=O)(=O)N1CC[C@H]2C[C@@H](C(=O)NO)N(S(=O)(=O)c3ccc(Oc4ccncc4)cc3)[C@H]2C1` (relative stereo) [Example 11, rel-(2S,3aS,7aR)—N-hydroxy-6-(methylsulfonyl)-1-{[4-(pyridin-4-yloxy)phenyl]sulfonyl}octahydro-1H-pyrrolo[2,3-c]pyridine-2-carboxamide] was tested. Which IC50 (metalloelastase (MMP-12)) did it give?
Answer: The IC50 was 80 nM.

Question: What about the “% inhibition of IL-2-induced peritoneal recruitment of lymphocytes” value ([1]; 10 mg/kg) of the same compound?
Answer: Its value is 38%.

Question: And the IC50 [2]?
Answer: Its IC50 is 870 nM.

Question: And the IC50 (MMP-2)?
Answer: Its IC50 is 370 nM.

Question: With `COc1ccc(S(=O)(=O)N2[C@H](C(=O)NO)C[C@@H]3CCN(C(=O)CCC4CCCC4)C[C@@H]32)cc1` (relative stereo) [Example 4, rel-2S,3aS,7aR)-6-(3-cyclopentylpropanoyl)-N-hydroxy-1-[(4-methoxyphenyl)sulfonyl]octahydro-1H-pyrrolo[2,3-c]pyridine-2-carboxamide] as the compound, how does the IC50 (metalloelastase (MMP-12)) read?
Answer: The IC50 was 640 nM.

Question: What about the IC50 [2] of the same compound?
Answer: The IC50 was 780 nM.

Question: And the IC50 (MMP-2)?
Answer: Its IC50 is 640 nM.

Question: `CCN(CC)C(=O)CN1CC[C@H]2C[C@@H](C(=O)NO)N(S(=O)(=O)c3ccc(OC)cc3)[C@H]2C1` (relative stereo) [Example 14, rel-(2S,3aS,7aR)-6-[2-(diethylamino)-2-oxoethyl]-N-hydroxy-1-[(4-methoxyphenyl)sulfonyl]octahydro-1H-pyrrolo[2,3-c]pyridine-2-carboxamide] was tested. Which IC50 (metalloelastase (MMP-12)) did it give?
Answer: The IC50 was 930 nM.

Question: And the IC50 [2]?
Answer: The IC50 was 1500 nM.

Question: And the IC50 (MMP-2)?
Answer: The IC50 was 1200 nM.

Question: How did the IC50 (metalloelastase (MMP-12)) turn out when `COc1ccc(S(=O)(=O)N2[C@H](C(=O)NO)C[C@@H]3CCN(C(=O)OCc4ccccc4)C[C@@H]32)cc1` (relative stereo) [Example 18, benzyl rel-(2S,3aS,7aR)-2-[(hydroxyamino)carbonyl]-1-[(4-methoxyphenyl)sulfonyl]octahydro-6H-pyrrolo[2,3-c]pyridine-6-carboxylate] was run?
Answer: The IC50 was 400 nM.

Question: What about the IC50 [2] of the same compound?
Answer: The IC50 was 680 nM.

Question: What about the IC50 (MMP-2) of the same compound?
Answer: Its IC50 is 490 nM.

Question: With `COc1ccc(S(=O)(=O)N2[C@H](C(=O)NO)C[C@@H]3CCN(C(C)=O)C[C@@H]32)cc1` (relative stereo) [Example 2, rel-(2S,3aS,7aR)-6-acetyl-N-hydroxy-1-[(4-methoxyphenyl)sulfonyl]octahydro-1H-pyrrolo[2,3-c]pyridine-2-carboxamide] as the compound, how does the IC50 (metalloelastase (MMP-12)) read?
Answer: Its IC50 is 130 nM.

Question: And the IC50 [2]?
Answer: Its IC50 is 150 nM.

Question: And the IC50 (MMP-2)?
Answer: Its IC50 is 95 nM.
